{"source": "patent US9669005B2", "about": "“Use of naringenin in preparing drugs for preventing and/or treatment abdominal aortic aneurysm” (priority 2013, dated 2017)", "type_in_all_cases": "in vivo", "key": {"[1]": {"system": "abdominal aortic aneurysms in C57BL/6J mice with CaPO4 daubed infrarenal arteries", "experiment": "Abdominal aortic aneurysm model induced by CaPO4 daubed infrarenal aortas, naringenin or doxycycline gavage", "conditions": "CaPO4 daubed C57BL/6 mice, daily gavage 7 days", "method": "12-week old of male C57BL/6 mice were anesthetized via intraperitoneal injection of 0.1% pentobarbital sodium (injection according to body weight, […]). Infrarenal abdominal aortas were separated, and the separated infrarenal abdominal aortas were packaged by gauze (1 cm in width×3 cm in length) soaked in 0.5 M CaCl2 solution. After 10 minutes, the gauze was removed, gauze soaked in PBS was instead used to package the blood vessel for 5 min. CaCl2+and PO4^−3 in PBS can form CaPO4 crystal, that is, corresponding to daubing CaPO4 to the blood vessel. After packaging the blood vessel with gauze soaked in NaCl for 10 minutes, gauze soaked in PBS is instead used for 5 min, serving as NaCl daubed control group.\nGavage was started at the first day after surgery, and water, naringenin (50 mg/kg) (Sigma-Aldrich, St. Louis, Mo.) or doxycycline (100 mg/kg) (Sigma-Aldrich, St. Louis, Mo.) gavage were given on mice daily. Materials were removed from the mice 7 days after gavage. Mice were weighed, and blood was drawn from inner canthus by capillary, after centrifuged for 10 minutes at 6000 rotations, the supernatant was removed and blood fat was measured (kit is purchased from BIOSINO company). Then perfusion and washing were performed on mice using PBS. Blood vessels were separated, and four blood vessels were randomly chosen for each group for photographing. The results were shown in FIG. 1, wherein, NaCl was the group of daubing NaCl (n=11), CaPO4 was the group of daubing CaPO4 plus water feed (n=12), CaPO4+NGN was the group of daubing CaPO4 μlus naringenin gavage (n=11), and CaPO4+Dox was the group of daubing CaPO4 μlus doxycycline gavage (n=11).\nThe blood vessels were sliced, and the change of the diameters in infrarenal abdominal aortas of mice were identified by H.E. staining. […] The data in FIG. 2A were an average value±standard deviation.\nThe fracture degree of elastic lamina is also an index showing the severity of abdominal aortic aneurysms. The degradation of elastic lamina is divided into four grades. The first grade means that the degradation of elastic lamina is less than 25%, with the second grade of 25%-50%, the third grade of 50%-75%, and the fourth grade means the fracture is more than 75%. We used Gomori staining to identify the fracture situation of elastic lamina of infrarenal abdominal aortas of mice. […] The data in FIG. 2B were an average value±standard deviation."}, "[2]": {"system": "MMP-2 and NMP-9", "experiment": "Gelatin zymography, CaPO4 model", "conditions": "CaPO4 daubed mice; infrarenal abdominal aorta culture supernatant; FIG. 4B", "method": "After extravasated blood in fresh removed blood vessels of infrarenal site in abdominal aortas of mice were cleared, and fat and connective tissues were removed, and blood vessels were cut into 1 cm ring, and put into 24-well plate. Blood vessels were cultured for 24 hours using 0.5 ml serum-free medium with high glucose. After the cultured supernatant protein was quantified, mercaptoethanol-free protein sample loading buffer was added, cryopreserved at −80° C. Water was used to prepare gelatin (Sigma-Aldrich, St. Louis, Mo.) into a concentration of 10 mg/ml, which was added to separation gel of protein electrophoresis according to the proportion of 1:10, causing the final concentration of gelatin as 1 mg/ml. Electrophoresis was performed in a voltage of 80V at 4° C. The gel was put into 0.25% Trixon-100 solution, and washing was performed twice in 30 minutes. […] Incubated gel was put into Coomassie brilliant blue to stain for 1-2 hours at room temperature, washed for 30 minutes with a solution having 30% methanol and 10% glacial acetic acid, a solution having 20% methanol and 10% glacial acetic acid, and a solution having 10% methanol and 5% glacial acetic acid, respectively, and then analyzed with Odyssey infrared fluorescence scanning system (LI-COR Biosciences, Lincoln, Nebr.). […]"}, "[3]": {"system": "IL-6, MCP-1, IL-10, TNF-α and IFN-γ in plasma", "experiment": "Inflammatory factors in plasma by flow kit, angiotensin II model", "conditions": "AngII ApoE-/- mice, naringenin gavage, FIG. 7B", "method": "Eyeballs of mice were removed and blood was drawn, 20 μl of heparin was added into the blood, after centrifuged at 6000 rotations and 4[…] for 10 minutes, the supernatant was aspirated. 10 μl of supernatant was taken, and 10 μl of beads were added, and then 10 μl of PE was added, washed twice with lotion after incubating for 2 hours at room temperature, and then 200 μl of lotion is added. Sorting was performed in the manner of up-flowing after blending (wherein, the flow kits of inflammatory factors of mice were purchased from BD Company)."}}, "data": [{"molecule": "O=C1C[C@@H](c2ccc(O)cc2)Oc2cc(O)cc(O)c21", "note": "[naringenin]", "values": [{"measurement": "fracture of elastic lamina of infrarenal abdominal aortas (Gomori staining)", "setting": "[1]; FIG. 2B", "value": "reverse the effect of CaPO4"}, {"measurement": "diameters of infrarenal abdominal aortas (H.E. staining)", "setting": "[1]; naringenin 50 mg/kg, doxycycline 100 mg/kg, average ± SD, CaPO4 + water 1.40±0.19, NaCl 0.77±0.06", "value": "1.03±0.18", "unit": "mm"}, {"measurement": "incidence rate and degree of bulge of blood vessels at infrarenal site", "setting": "[1]; naringenin 50 mg/kg, doxycycline 100 mg/kg, vascular photos FIG. 1", "value": "reduce the incidence rate and degree of bulge"}, {"measurement": "MMP-2 and NMP-9 (gelatin zymography)", "setting": "[2]", "value": "reverse the increase of MMP-2 and NMP-9 caused by CaPO4 daubing"}, {"measurement": "IL-10 in plasma", "setting": "[3]", "value": "does not change significantly"}, {"measurement": "TNF-α and IFN-γ in plasma", "setting": "[3]", "value": "do not change"}, {"measurement": "levels of IL-6 and MCP-1 in plasma", "setting": "[3]; n=11, P<0.05", "value": "significantly decrease"}]}]}
